ChEMBL document CHEMBL2331404, “Mono-/dihydroxybenzoic acid esters and phenol pyridinium derivatives as inhibitors of the mammalian carbonic anhydrase isoforms I, II, VII, IX, XII and XIV” (Bioorg Med Chem, 2013)

Key:
[1] = biological target: Carbonic anhydrase 2 (Homo sapiens, UniProt P00918)
Description: Inhibition of human carbonic anhydrase 2 preincubated for 15 mins by CO2 hydration stopped-flow assay

[2] = biological target: Carbonic anhydrase 9 (Homo sapiens, UniProt Q16790)
Description: Inhibition of human carbonic anhydrase 9 preincubated for 15 mins by CO2 hydration stopped-flow assay

[3] = biological target: Carbonic anhydrase 14 (Homo sapiens, UniProt Q9ULX7)
Description: Inhibition of human carbonic anhydrase 14 preincubated for 15 mins by CO2 hydration stopped-flow assay

[4] = biological target: Carbonic anhydrase 7 (Homo sapiens, UniProt P43166); assay: Inhibition of human carbonic anhydrase 7 preincubated for 15 mins by CO2 hydration stopped-flow assay
Chain of Carbonic anhydrase 7 (P43166 whole entry): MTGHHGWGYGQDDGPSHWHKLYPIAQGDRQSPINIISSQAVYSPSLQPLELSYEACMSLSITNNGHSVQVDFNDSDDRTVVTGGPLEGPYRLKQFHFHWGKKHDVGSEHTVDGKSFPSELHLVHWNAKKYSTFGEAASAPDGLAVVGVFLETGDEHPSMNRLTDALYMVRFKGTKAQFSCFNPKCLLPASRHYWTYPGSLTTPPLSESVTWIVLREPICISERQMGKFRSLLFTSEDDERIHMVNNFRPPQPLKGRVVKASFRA

[5] = biological target: Carbonic anhydrase 12 (Homo sapiens, UniProt O43570)
Chain of Carbonic anhydrase 12 (O43570 whole entry): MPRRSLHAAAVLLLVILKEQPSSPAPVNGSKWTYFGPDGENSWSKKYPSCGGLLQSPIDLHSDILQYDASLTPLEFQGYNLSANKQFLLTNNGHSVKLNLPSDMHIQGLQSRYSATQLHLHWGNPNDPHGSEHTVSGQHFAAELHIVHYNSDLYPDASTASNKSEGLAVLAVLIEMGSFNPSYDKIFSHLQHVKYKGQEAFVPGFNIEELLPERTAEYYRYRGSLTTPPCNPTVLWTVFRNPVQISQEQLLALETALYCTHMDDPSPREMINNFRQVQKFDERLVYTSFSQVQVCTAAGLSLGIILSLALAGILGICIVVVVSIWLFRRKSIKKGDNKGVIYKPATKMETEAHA

[6] = biological target: Carbonic anhydrase 1 (Homo sapiens, UniProt P00915)
Chain of Carbonic anhydrase 1 (P00915 whole entry): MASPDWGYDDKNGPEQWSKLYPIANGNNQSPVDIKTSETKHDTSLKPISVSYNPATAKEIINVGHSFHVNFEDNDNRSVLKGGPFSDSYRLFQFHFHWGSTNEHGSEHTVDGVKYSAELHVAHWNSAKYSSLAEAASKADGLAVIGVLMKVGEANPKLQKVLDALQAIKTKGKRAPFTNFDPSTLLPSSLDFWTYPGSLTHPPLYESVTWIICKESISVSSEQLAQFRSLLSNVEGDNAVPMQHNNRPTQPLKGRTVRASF
Description: Inhibition of human carbonic anhydrase 1 preincubated for 15 mins by CO2 hydration stopped-flow assay

Chain of Carbonic anhydrase 14 (Q9ULX7 whole entry): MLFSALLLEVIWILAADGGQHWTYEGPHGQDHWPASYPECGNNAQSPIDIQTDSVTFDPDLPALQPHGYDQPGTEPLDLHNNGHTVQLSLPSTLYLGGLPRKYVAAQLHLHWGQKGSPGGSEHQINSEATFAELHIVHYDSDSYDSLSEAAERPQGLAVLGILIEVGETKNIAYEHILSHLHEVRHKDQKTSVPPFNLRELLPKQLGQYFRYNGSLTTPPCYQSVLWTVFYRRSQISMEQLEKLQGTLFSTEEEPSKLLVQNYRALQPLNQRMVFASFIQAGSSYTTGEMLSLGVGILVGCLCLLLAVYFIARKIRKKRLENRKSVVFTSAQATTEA

| Ki [1] | Ki [2] | Ki [3] | Ki [4] | Ki [5] | Ki [6] | Compound |
| --- | --- | --- | --- | --- | --- | --- |
| 690 nM | – | – | – | – | – | CCOC(=O)c1cc(O)ccc1O |
| 700 nM | 810 nM | – | – | – | – | COC(=O)c1c(O)cccc1O |
| 560 nM | 780 nM | – | – | – | – | CCOC(=O)c1c(O)cccc1O |
| 420 nM | 800 nM | – | – | – | – | CC(C)OC(=O)c1ccc(O)c(O)c1 |
| 700 nM | 900 nM | – | – | – | – | CC(C)OC(=O)c1cc(O)cc(O)c1 |
| 4400 nM | 6700 nM | – | – | – | – | O=C(O)c1cc(-c2c3ccc(=O)cc-3oc3cc(O)ccc23)ccc1NC(=S)NCCc1ccc(O)c(O)c1 |
| 6800 nM | 830 nM | – | – | – | – | Cc1cc(C)[n+](CCc2ccccc2C)c(C)c1 |
| 4700 nM | 710 nM | – | – | – | – | Cc1cc(C)[n+](CCc2ccccc2-c2ccccc2)c(C)c1 |
| 4900 nM | 4700 nM | – | – | – | – | Nc1cc(O)ccc1Cl |
| 320 nM | 680 nM | – | – | – | – | Cc1cc(C)[n+](-c2cccc(O)c2)c(C)c1 |
| 490 nM | 700 nM | – | – | – | – | Cc1cc(C)[n+](-c2cc(O)ccc2Cl)c(C)c1 |
| 510 nM | 310 nM | – | – | – | – | CC(C)OC(=O)c1ccc(O)cc1O |
| 5200 nM | 5900 nM | 6500 nM | 6600 nM | 7200 nM | 5700 nM | O=C(O)c1c(O)cccc1O |
| 520 nM | 820 nM | – | – | – | – | CCOC(=O)c1ccc(O)cc1O |
| 610 nM | 780 nM | – | – | – | – | CCOC(=O)c1ccc(O)c(O)c1 |
| – | – | 6790 nM | 3880 nM | – | – | COc1ccc(OC)cc1 [1,4-DIMETHOXYBENZENE] |
| 4900 nM | 68000 nM | 70000 nM | 72000 nM | 7500 nM | 5200 nM | O=C(O)c1ccc(O)cc1O [2,4-DIHYDROXYBENZOIC ACID] |
| – | – | 650 nM | 7170 nM | – | – | O=C(O)c1cc(O)cc(O)c1 [3,5-DIHYDROXYBENZOIC ACID] |
| 4700 nM | 4900 nM | 7200 nM | 5900 nM | 7700 nM | 4900 nM | Nc1cccc(O)c1 [3-AMINOPHENOL] |
| 710 nM | 610 nM | – | – | – | – | CCOC(=O)/C=C/c1ccc(O)cc1 [ETHYL P-COUMARATE] |
| – | 6600 nM | 67000 nM | 68000 nM | 7300 nM | 4200 nM | O=C(O)c1cc(O)ccc1O [GENTISIC ACID] |
| 520 nM | 680 nM | 730 nM | 690 nM | 760 nM | 540 nM | CC(C)OC(=O)/C=C/c1ccc(O)cc1 [ISOPROPYL 3-(4-HYDROXYPHENYL)ACRYLATE] |
| 4400 nM | 7400 nM | – | – | – | – | CC(C)OC(=O)c1ccc(O)cc1 [ISOPROPYL 4-HYDROXYBENZOATE] |
| 760 nM | 890 nM | 860 nM | 850 nM | 950 nM | 830 nM | COC(=O)c1ccc(O)cc1O [METHYL 2,4-DIHYDROXYBENZOATE] |
| 770 nM | 840 nM | – | – | – | – | COC(=O)c1cc(O)ccc1O [METHYL 2,5-DIHYDROXYBENZOATE] |
| 690 nM | 810 nM | – | – | – | – | COC(=O)c1cc(O)cc(O)c1 [METHYL 3,5-DIHYDROXYBENZOATE] |
| 800 nM | 850 nM | 830 nM | 820 nM | 810 nM | 780 nM | COC(=O)/C=C/c1ccc(O)cc1 [METHYL P-HYDROXYCINNAMATE] |
| 580 nM | 790 nM | – | – | – | – | COC(=O)c1ccc(O)c(O)c1 [METHYL PROTOCATECHUATE] |
| 3400 nM | 5500 nM | 4100 nM | 780 nM | 820 nM | 2600 nM | COC(=O)c1ccc(O)cc1 [METHYLPARABEN] |
| – | – | 690 nM | 7870 nM | – | – | O=C(O)c1ccc(O)c(O)c1 [PROTOCATECHUIC ACID] |

| Compound | Ki [1] | Ki [2] | Ki [3] | Ki [4] | Ki [5] | Ki [6] |
| --- | --- | --- | --- | --- | --- | --- |
| CC(C)OC(=O)c1cc(O)ccc1O | 580 nM | 810 nM | – | – | – | – |
| CC(C)OC(=O)c1c(O)cccc1O | 530 nM | 790 nM | – | – | – | – |
| CCOC(=O)c1cc(O)cc(O)c1 | 660 nM | 910 nM | – | – | – | – |
| CCOC(=O)c1ccc(O)cc1 [ETHYLPARABEN] | 4800 nM | 8200 nM | 7700 nM | 8700 nM | 8600 nM | 7900 nM |
| COc1ccc(C(=O)O)cc1OC [VERATRIC ACID] | – | – | 740 nM | 7150 nM | – | – |
